Test results taken from patent publication US20240116896A1 (ATAI Life Sciences AG, priority 2022, published 2024).

Tests used:
5-HT2A = 5-HT2A (Homo sapiens, UniProt P28223); assay: IPOne (IP1 HTRF) assay, CHO-K1 cells expressing human 5-HT2A; format: cell-based; set-up: expressed in transfected cells; host or cells: CHO-K1; conditions: for EC50: CHO-K1, human 5-HT2A; for activation at 0.3 µM / activation at 30 µM: CHO-K1, percentage of reference agonist α-Me-5-HT at its EC100
Procedure: (§1) IPOne assays were performed using stably-transfected cell lines (CHO-K1) expressing human 5-HT2A or 5-HT2B receptors. Upon activation of these receptors, Gq-mediated myo-Inositol 1 phosphate (IP1) production is detected by a Homogeneous Time-Resolved Fluorescence (HTRF) competitive immunoassay, whereby an IP1 analog coupled to a fluorophore (acceptor) competes with endogenous IP1 for binding to a labeled anti-IP1 antibody (donor). The resulting signal is inversely proportional to the concentration of IP1 in the sample. Cells were incubated with an IP1 inhibitor (to prevent degradation and allow detection) and either reference compound or test compound. α-Me-5-HT was used as the assay reference agonist. Activation of 5-HT2A or 5-HT2B receptors was measured via accumulation of IP1 detected by HTRF. Agonist activity of test compounds was expressed as a percentage of the activity of the reference agonist at its EC100 concentration.

5-HT2B = 5-HT2B (Homo sapiens, UniProt P41595); assay: IPOne (IP1 HTRF) assay, CHO-K1 cells expressing human 5-HT2B; format: cell-based; set-up: expressed in transfected cells; host or cells: CHO-K1; conditions: for EC50: CHO-K1, human 5-HT2B; for activation at 0.3 µM / activation at 30 µM: CHO-K1, percentage of reference agonist α-Me-5-HT at its EC100
Chain of 5-HT2B (P41595 whole entry): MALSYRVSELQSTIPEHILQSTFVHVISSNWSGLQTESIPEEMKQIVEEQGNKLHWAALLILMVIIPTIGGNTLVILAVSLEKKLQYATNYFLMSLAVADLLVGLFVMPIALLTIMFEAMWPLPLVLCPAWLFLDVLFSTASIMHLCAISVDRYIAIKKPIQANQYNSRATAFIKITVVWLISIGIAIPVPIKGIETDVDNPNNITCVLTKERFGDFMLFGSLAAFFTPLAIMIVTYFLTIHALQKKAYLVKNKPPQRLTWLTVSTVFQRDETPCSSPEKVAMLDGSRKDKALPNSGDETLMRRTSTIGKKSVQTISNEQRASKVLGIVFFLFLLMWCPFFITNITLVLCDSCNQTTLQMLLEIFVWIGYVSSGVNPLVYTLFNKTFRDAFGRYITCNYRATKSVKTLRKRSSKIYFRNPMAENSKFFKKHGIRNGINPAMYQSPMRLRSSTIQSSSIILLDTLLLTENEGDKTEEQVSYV
Procedure: as §1

Chain of 5-HT2A (P28223 whole entry): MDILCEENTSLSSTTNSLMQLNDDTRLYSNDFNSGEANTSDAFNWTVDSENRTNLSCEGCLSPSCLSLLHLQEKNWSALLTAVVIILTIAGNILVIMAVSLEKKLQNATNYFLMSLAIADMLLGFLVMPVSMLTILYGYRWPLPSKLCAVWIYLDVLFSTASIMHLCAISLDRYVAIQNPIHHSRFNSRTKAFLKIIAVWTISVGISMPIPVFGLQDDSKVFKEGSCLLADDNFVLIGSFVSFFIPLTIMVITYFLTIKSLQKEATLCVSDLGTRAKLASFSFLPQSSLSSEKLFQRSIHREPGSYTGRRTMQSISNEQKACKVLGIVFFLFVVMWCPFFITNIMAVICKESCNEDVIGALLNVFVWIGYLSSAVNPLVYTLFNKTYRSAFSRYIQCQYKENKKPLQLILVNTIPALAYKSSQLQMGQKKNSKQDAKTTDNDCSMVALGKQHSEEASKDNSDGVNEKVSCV

Row | Structure (SMILES) | EC50 (5-HT2A) [nM] | activation at 0.3 µM (5-HT2A) [%] | activation at 30 µM (5-HT2A) [%] | EC50 (5-HT2B) [nM] | activation at 0.3 µM (5-HT2B) [%] | activation at 30 µM (5-HT2B) [%]
1 | COc1ccc2[nH]cc(CCN3CCC[C@H]3CO)c2c1 [Compound 50] | 12.5 | 100 | 103 | 8.8 | 101 | 101
2 | CC[C@H](O)[C@@H]1CCCN1CCc1c[nH]c2ccccc12 [Compound 78, (S)-1-((S)-1-(2-(1H-indol-3-yl)ethyl)pyrrolidin-2-yl)propan-1-ol] |  | 1.39 | 64.3 |  | 5.16 | 82.2
3 | COc1cccc2[nH]c(Br)c(CCN3CCCC3CO)c12 (centres unmarked) [Compound 67, (1-(2-(2-bromo-4-methoxy-1H-indol-3-yl)ethyl)pyrrolidin-2-yl)methanol] |  | 27.2 | 95.9 |  | 19.2 | 87.1
4 | NCC1CCCN1CCc1c[nH]c2ccccc12 (centres unmarked) [Compound 22] |  | 10.2 | 99 |  | 20 | 99.6
5 | C[C@H](O)[C@@H]1CCCN1CCc1c[nH]c2ccccc12 [Compound 73, (S)-1-((S)-1-(2-(1H-indol-3-yl)ethyl)pyrrolidin-2-yl)ethan-1-ol] | 557 | 61.9 | 101 | 958 | 61.2 | 104
6 | OCC1CCCN1CCc1c(Cl)[nH]c2ccc(F)cc12 (centres unmarked) [Compound 70, (1-(2-(2-chloro-5-fluoro-1H-indol-3-yl)ethyl)pyrrolidin-2-yl)methanol] |  | 61 | 97.7 |  | 55.1 | 99.8
7 | C[C@@]1(CO)CCCN1CCc1c[nH]c2ccccc12 [Compound 93, (S)-(1-(2-(1H-indol-3-yl)ethyl)-2-methylpyrrolidin-2-yl)methanol] |  | -11.3 | 1.82 |  | -0.54 | 25.6
8 | COC(=O)[C@@H]1CCCN1CCc1c[nH]c2ncccc12 [Compound 94, methyl (2-(1H-pyrrolo[2,3-b]pyridin-3-yl)ethyl)-L-prolinate] |  | 0.14 | 54.3 |  | -0.22 | 2.48
9 | OCC1CCCN1CCc1c[nH]c2cccc(O)c12 (centres unmarked) [Compound 29, 3-(2-(2-(hydroxymethyl)pyrrolidin-1-yl)ethyl)-1H-indol-4-ol] |  | 99.4 | 99.2 |  | 90.8 | 96.4
10 | CCOC(=O)[C@@H]1CCCN1CCc1c[nH]c2ccccc12 [Compound 52, ethyl (2-(1H-indol-3-yl)ethyl)-L-prolinate] | 888 | 24 | 101 | 2560 | 25.4 | 99.2
11 | OC[C@@H]1CCCN1CCc1c(Br)[nH]c2ccccc12 [Compound 57, (S)-(1-(2-(2-bromo-1H-indol-3-yl)ethyl)pyrrolidin-2-yl)methanol] |  | 4.69 | 30.9 |  | -1.03 | 73
12 | OC[C@@H]1CCCN1CCc1c[nH]c2ccc(F)cc12 [Compound 59, (S)-(1-(2-(5-fluoro-1H-indol-3-yl)ethyl)pyrrolidin-2-yl)methanol] | 7.7 | 86.3 | 89.4 | 8.9 | 79.8 | 85.7
13 | CC(C)OC(=O)[C@@H]1CCCN1CCc1c[nH]c2ccccc12 [Compound 55, isopropyl (2-(1H-indol-3-yl)ethyl)-L-prolinate] | 358 | 68.1 | 101 | 1040 | 37.7 | 102
14 | OC[C@@H]1CCCN1CCc1c[nH]c2cccc(O)c12 [Compound 49, (S)-3-(2-(2-(hydroxymethyl)pyrrolidin-1-yl)ethyl)-1H-indol-4-ol] | 22.5 | 99.2 | 100 | 43.2 | 92 | 99.1
15 | CC[C@@H](O)[C@@H]1CCCN1CCc1c[nH]c2ccccc12 [Compound 77, (R)-1-((S)-1-(2-(1H-indol-3-yl)ethyl)pyrrolidin-2-yl)propan-1-ol] |  | 23.9 | 90.6 |  | 18.2 | 86.7
16 | COC(=O)[C@@H]1CCCN1CCc1c[nH]c2ccccc12 [Compound 33, methyl (2-(1H-indol-3-yl)ethyl)-L-prolinate] | 806 | 44 | 94.4 | 456 | 33.9 | 91.3
17 | OCC1CCCN1CCc1c(Br)[nH]c2ccc(F)cc12 (centres unmarked) [Compound 69, (1-(2-(2-bromo-5-fluoro-1H-indol-3-yl)ethyl)pyrrolidin-2-yl)methanol] |  | 15.1 | 83.8 |  | 27.6 | 90.5
18 | OC[C@@H]1CCCN1CCc1c[nH]c2ncccc12 [Compound 95, (S)-(1-(2-(1H-pyrrolo[2,3-b]pyridin-3-yl)ethyl)pyrrolidin-2-yl)methanol] |  | 0.81 | 84.3 |  | 1.09 | 9.66
19 | OC[C@H]1CCN1CCc1c[nH]c2ccccc12 [Compound 53, (R)-(1-(2-(1H-indol-3-yl)ethyl)azetidin-2-yl)methanol] |  | 3.07 | 70.7 |  | 16.3 | 74.7
20 | COc1cccc2[nH]cc(CCN3CCC[C@H]3CO)c12 [Compound 48, (S)-(1-(2-(4-methoxy-1H-indol-3-yl)ethyl)pyrrolidin-2-yl)methanol] | 11.2 | 83.2 | 90.9 | 22.2 | 62 | 83.4
21 | OC[C@@H]1CCCN1CCc1c[nH]c2ccc(O)cc12 [Compound 51] | 45.6 | 99 | 101 | 86.7 | 85.7 | 99.1
22 | COC(=O)[C@]1(C)CCCN1CCc1c[nH]c2ccccc12 [Compound 92, methyl (S)-1-(2-(1H-indol-3-yl)ethyl)-2-methylpyrrolidine-2-carboxylate] |  | -16.3 | -6.28 |  | -2.23 | 15.4
23 | OC[C@H]1CCCN1CCc1c[nH]c2ccccc12 [Compound 32, (R)-(1-(2-(1H-indol-3-yl)ethyl)pyrrolidin-2-yl)methanol] |  | 7.16 | 42.1 |  | 4.28 | 33.9
24 | COc1ccc2[nH]c(Br)c(CCN3CCCC3CO)c2c1 (centres unmarked) [Compound 72, (1-(2-(2-bromo-5-methoxy-1H-indol-3-yl)ethyl)pyrrolidin-2-yl)methanol] |  | 5.63 | 37.6 |  | 13.5 | 41.7
25 | OC[C@@H]1CCCN1CCc1c[nH]c2ccccc12 [Compound 31, (S)-(1-(2-(1H-indol-3-yl)ethyl)pyrrolidin-2-yl)methanol] | 62.1 | 76.5 | 99.5 | 126 | 54.6 | 97
26 | CC(C)(O)[C@@H]1CCCN1CCc1c[nH]c2ccccc12 [Compound 74, 2-[(2S)-1-[2-(1H-indol-3-yl)ethyl]pyrrolidin-2-yl] propan-2-ol] | 247 | 80.2 | 102 | 526 | 63 | 100
27 | COC(=O)[C@H]1CCCN1CCc1c[nH]c2ccccc12 [Compound 34, methyl (2-(1H-indol-3-yl)ethyl)-D-prolinate] |  | 4.6 | 29.9 |  | 1.34 | 35.1
28 | OC[C@@H]1CCN1CCc1c[nH]c2ccccc12 [Compound 54, (S)-(1-(2-(1H-indol-3-yl)ethyl)azetidin-2-yl)methanol] | 249 | 81.1 | 101 | 780 | 62 | 97.9
29 | OC[C@@H]1CCCN1CCc1c[nH]c2ccc(OC(F)(F)F)cc12 [Compound 61, (S)-(1-(2-(5-(trifluoromethoxy)-1H-indol-3-yl)ethyl)pyrrolidin-2-yl)methanol] | 76 | 46.1 | 88.3 | 57.7 | 37.5 | 76.2
30 | COc1ccc(Br)c2[nH]cc(CCN3CCCC3CO)c12 (centres unmarked) [Compound 42, (1-(2-(7-bromo-4-methoxy-1H-indol-3-yl)ethyl)pyrrolidin-2-yl)methanol] |  | 78.5 | 94.1 |  | 22 | 46.2
